The source of these data is patent US20210395295A1, “INHIBITORS OF GLUCOCORTICOID RECEPTOR” (ORIC Pharmaceuticals, Inc., priority 2015, published 2021).

pIC50: −log10 of the molar value.

Assay [1] has as its target T1, GR (Homo sapiens, UniProt P04150).
T1 construct: expressed in transfected cells; host or cells: CHO-K1 (Chinese hamster ovary) reporter cells carrying GR and MMTV-Luc
T1 sequence (P04150 1-777): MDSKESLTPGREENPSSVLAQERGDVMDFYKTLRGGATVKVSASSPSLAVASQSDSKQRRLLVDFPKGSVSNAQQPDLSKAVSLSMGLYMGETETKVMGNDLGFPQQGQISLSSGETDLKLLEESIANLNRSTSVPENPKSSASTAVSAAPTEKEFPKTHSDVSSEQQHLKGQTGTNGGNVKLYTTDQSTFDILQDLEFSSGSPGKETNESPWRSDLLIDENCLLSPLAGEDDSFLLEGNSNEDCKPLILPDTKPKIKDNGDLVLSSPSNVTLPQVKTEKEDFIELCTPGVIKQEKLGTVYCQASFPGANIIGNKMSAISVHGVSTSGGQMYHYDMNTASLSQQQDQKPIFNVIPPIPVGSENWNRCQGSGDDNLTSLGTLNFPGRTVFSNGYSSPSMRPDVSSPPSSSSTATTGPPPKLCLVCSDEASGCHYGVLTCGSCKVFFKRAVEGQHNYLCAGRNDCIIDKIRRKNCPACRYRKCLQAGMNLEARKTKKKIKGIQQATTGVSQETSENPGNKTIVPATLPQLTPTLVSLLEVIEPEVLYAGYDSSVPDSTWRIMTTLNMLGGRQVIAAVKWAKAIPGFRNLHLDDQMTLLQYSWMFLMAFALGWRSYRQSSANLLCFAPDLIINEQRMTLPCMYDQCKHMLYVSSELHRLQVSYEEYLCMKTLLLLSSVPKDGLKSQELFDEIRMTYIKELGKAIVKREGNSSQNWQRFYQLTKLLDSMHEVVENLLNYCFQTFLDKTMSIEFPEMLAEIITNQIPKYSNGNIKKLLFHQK
Kind of assay: In vitro GR luciferase reporter assay (antagonist mode). The assay is classed as cell-based. To be noted: CHO-K1-GR-MMTV-Luc reporter cells, 10 nM dexamethasone, 18-24 hours. An excerpt:
Example 4: In Vitro GR Luciferase Reporter Assay
• Cell Line: CIH-K1-GR-MMTV-Luc reporter cells • Culture Media: DMEM (with phenol red) +10% FBS • Assay Media: DMEM (without phenol red) +10% CSS
Culture CHO-K1-GR-MMTV-Luc reporter cells in 15 cm plates in Culture Media at conditions less than 90% confluence.
Prepare 200× DMSO 1:5 serial dilutions of control and test compounds in 96-well non-sterile V bottom plate in DMSO, 8 serial dilutions for each compound.
Prepare 5× Assay Media diluted compound serial dilutions in 96-well non-sterile V bottom plate: Add 97.5 uL/well of Assay Media into 96-well then add 2.5 ul of 200× concentration of compounds and mix well.
Seed cells for Antagonist Assay: 1.5×10^6 CHO-K1-GR-MMTV-Luc reporter cells were seeded in a Corning 3707 flat clear bottom 384-well white TC plate in 20 ul of Assay Media containing 12.5 nM Dexamethasone (final concentration=10nM). […]
Read plates: Equilibrate appropriate amount of Promega OneGlo luciferase reagent to room temperature. Remove the plates from incubator and add 25 uL of OneGlo reagent/well by multiple channel pipette and read the plates with Tecan F500 luminometer within 3 minutes.
The ability of the compounds disclosed herein to inhibit GR activity was quantified and the respective IC50 value was determined. […]
A general note: Reporter assays use an easily measured gene product as a stand-in for the process of interest.

Assay [2] deals with AR. Description: In vitro AR agonism assay in LNAR reporter cell line. To be noted: for Relative Maximum Response to Mifepristone: LNAR cells (overexpressed AR, 4xARE-Luc), RPMI + 10% CSS, Mifepristone maximum response set to 1. Format: cell-based. As for the experimental part:
Example 5: In Vitro AR Agonisin Assay
The AR agonism assay was done in the LNAR reporter cell line which has overexpressed AR and 4×ARE-Luc genes. This cell line is sensitive to even minor partial AR agonism activity in hormone-deprived media (CSS). The assays were done in RPMI (without phenol red) +10% CSS using 6000 LNAR cells/well in 384-well plates and compounds were incubated with cells in […] incubator for 8-24 hrs. OneGlo reagent (25 uL/well) was added and plates were read with luminometer within 3 minutes.
To gauge the AR partial agonism activity, Mifepristone is included as a standard in the assay. AR agonism assay results are quantified by determining the ratio of the maximum response of individual compounds to the maximum response of Mifepristone (arbitrarily set to 1). Values of Table 4 are reported as Relative Maximum Response to Mifepristone. This general trend of AR agonism was shown for the class of compounds described herein.

Compound `[2H]C([2H])([2H])C#C[C@]1(O)[C@H](C)C[C@H]2[C@@H]3CCC4=CC(=O)CCC4=C3[C@@H](c3cc(F)c(C)c(F)c3)C[C@@]21C` showed a negative logarithm of the IC50 (pIC50) in assay [1] not below 7.00.
With `CN(C)c1ccc([C@H]2C[C@@]3(C)[C@@H](CC[C@@]3(O)C#CC(C)(C)C)[C@@H]3CCC4=CC(=O)CCC4=C32)cc1`, the “Relative Maximum Response to Mifepristone” value in assay [2] is on record as “A (A: ≤0.4)”.
Compound `Cc1ccc([C@H]2C[C@@]3(C)[C@@H](CC[C@@]3(O)C#CC(C)(F)F)[C@@H]3CCC4=CC(=O)CCC4=C32)cc1F` had a pIC50 in assay [1] of less than 7.00.
On to `CC#C[C@]1(O)CC[C@H]2[C@@H]3CCC4=CC(=O)CCC4=C3[C@@H](c3ccc(N(C)C)cc3)C[C@@]21C` [Mifepristone, reference compound], for which the “concentration showing strong partial AR agonism” value in assay [2] (LNAR reporter cells, hormone-deprived media (CSS)) is recorded as not below 10 nM.
As for `CC(C)C#C[C@]1(O)CC[C@H]2[C@@H]3CCC4=CC(=O)CCC4=C3[C@@H](c3ccc(N(C)C)c(F)c3)C[C@@]21C`, in assay [2], the “Relative Maximum Response to Mifepristone” value is listed as “A (A: ≤0.4)”.

The term pIC50 denotes −log10 of the IC50, conventionally taken in molar units. A low value points to a large IC50.
